Legend:
[1] = target: T1, Polyunsaturated fatty acid 5-lipoxygenase (Homo sapiens) (UniProt P09917); test: (§1) Inhibitory concentration required against 5-lipoxygenase activity in cytosolic fractions of human neutrophils; settings: concentration not given here
T1 sequence (whole entry): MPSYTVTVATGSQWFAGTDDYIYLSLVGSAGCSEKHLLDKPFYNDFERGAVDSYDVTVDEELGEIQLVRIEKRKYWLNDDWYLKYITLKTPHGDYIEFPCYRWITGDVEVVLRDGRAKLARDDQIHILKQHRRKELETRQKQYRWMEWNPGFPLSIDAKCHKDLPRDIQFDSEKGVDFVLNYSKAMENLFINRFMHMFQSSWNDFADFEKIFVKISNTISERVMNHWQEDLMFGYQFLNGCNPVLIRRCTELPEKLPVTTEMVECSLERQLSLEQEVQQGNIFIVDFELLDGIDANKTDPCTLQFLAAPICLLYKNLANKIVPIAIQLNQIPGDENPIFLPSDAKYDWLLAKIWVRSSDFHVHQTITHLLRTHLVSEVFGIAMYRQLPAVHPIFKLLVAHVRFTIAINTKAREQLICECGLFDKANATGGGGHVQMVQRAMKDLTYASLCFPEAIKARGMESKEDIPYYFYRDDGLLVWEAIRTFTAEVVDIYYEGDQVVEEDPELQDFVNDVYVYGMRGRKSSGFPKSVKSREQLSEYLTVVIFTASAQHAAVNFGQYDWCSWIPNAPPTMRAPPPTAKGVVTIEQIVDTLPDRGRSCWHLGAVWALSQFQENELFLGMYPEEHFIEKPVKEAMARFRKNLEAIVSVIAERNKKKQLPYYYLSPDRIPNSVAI

[2] = target: T2, Prostaglandin G/H synthase 2 (Homo sapiens) (UniProt P35354); test: Inhibition of COX-2 activity in intact human monocytes; assay type: cell-based; design: concentration or dose not given beside the values; settings: concentration not given here
T2 sequence (whole entry): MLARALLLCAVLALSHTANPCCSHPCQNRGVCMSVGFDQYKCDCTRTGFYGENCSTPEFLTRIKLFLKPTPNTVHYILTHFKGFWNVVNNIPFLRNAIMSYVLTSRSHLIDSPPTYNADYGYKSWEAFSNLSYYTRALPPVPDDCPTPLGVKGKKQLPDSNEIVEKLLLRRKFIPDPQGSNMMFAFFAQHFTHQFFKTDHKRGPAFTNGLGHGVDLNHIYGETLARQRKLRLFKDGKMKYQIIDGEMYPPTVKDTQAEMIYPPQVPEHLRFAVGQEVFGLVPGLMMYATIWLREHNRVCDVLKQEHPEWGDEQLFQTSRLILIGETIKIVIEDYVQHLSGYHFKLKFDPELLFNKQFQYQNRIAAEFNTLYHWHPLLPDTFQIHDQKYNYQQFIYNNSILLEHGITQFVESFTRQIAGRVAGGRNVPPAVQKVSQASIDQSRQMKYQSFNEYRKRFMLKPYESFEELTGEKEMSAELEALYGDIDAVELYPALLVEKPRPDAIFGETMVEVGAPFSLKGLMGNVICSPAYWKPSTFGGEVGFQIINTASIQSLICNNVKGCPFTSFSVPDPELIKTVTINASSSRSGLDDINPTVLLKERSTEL

Mus musculus [3] = test: In vivo inhibition of compound required for migration of neutrophils into the mouse pouch at the dose of 100 nmol/pouch; assay type: functional
Mus musculus [4] = test: In vivo inhibition of compound required to inhibit LTB4 levels in zymosan treated mouse air pouch at a dose of 100 nmol/pouch; assay type: functional
Mus musculus [5] = test: In vivo inhibition of compound required to inhibit PGE-2 levels in zymosan treated mouse air pouch at a dose of 100 nmol/pouch; assay type: functional
Mus musculus [6] = test: In vivo inhibition of compound required to inhibit TNF-alpha levels in zymosan treated mouse air pouch at a dose of 100 nmol/pouch; assay type: functional
Homo sapiens [7] = species: Homo sapiens; test: (§2) […] required for elastase release in stimulated human neutrophils; assay type: functional; design: concentration or dose not given beside the values
Homo sapiens [8] = species: Homo sapiens; test: (§3) Inhibitory concentration required for LTB4 synthesis in stimulated human neutrophils; assay type: functional
[9] = target: T3, Polyunsaturated fatty acid 5-lipoxygenase (Homo sapiens, UniProt P09917); test: as §1
T3 sequence (P09917 whole entry): T1 sequence (whole entry)

Homo sapiens [10] = species: Homo sapiens; test: as §2; assay type: functional
Homo sapiens [11] = species: Homo sapiens; test: as §3; assay type: functional, organism-based
Homo sapiens [12] = species: Homo sapiens; test: Inhibitory concentration required for scavenging of superoxide anion generated by stimulated human neutrophils; assay type: functional
[13] = Inhibitory concentration required for scavenging of superoxide anion generated by hypoxanthine / xanthine oxidase system; assay type: functional
[14] = target: T3, Polyunsaturated fatty acid 5-lipoxygenase; test: Inhibitory concentration required against 5-lipoxygenase activity in intact cells of human neutrophils; assay type: cell-based

Row | SMILES | inhibition [1] [%] | inhibition [2] [%] | IC50 [9] [µM] | IC50 (Homo sapiens [10]) [µM] | IC50 (Homo sapiens [11]) [µM] | IC50 (Homo sapiens [12]) [µM] | IC50 [13] [µM] | IC50 [14] [µM] | Inhibition (Mus musculus [3]) [%] | Inhibition (Mus musculus [4]) [%] | Inhibition (Mus musculus [5]) [%] | Inhibition (Mus musculus [6]) [%] | Inhibition (Homo sapiens [7]) [%] | Inhibition (Homo sapiens [8]) [%]
1 | COc1cc(/C=C/C(=O)c2cc(OC)c(OC)c(OC)c2)cc(OC)c1OC | 14.6 | 0 |  |  |  |  |  |  | 35 | 27.5 | 0 | 25.7 | 0 | 21.1
2 | O=C(/C=C/c1ccco1)c1ccc(Cl)c(Cl)c1 |  | 0 | 4.1 | 5.4 | 4.8 |  |  |  | 47.3 | 0 | 71 | 0 |  | 
3 | COc1ccc(C(=O)/C=C/c2ccc(C(F)(F)F)cc2)c(OC)c1 | 21.7 | 0 |  |  |  |  |  |  | 0 | 45.9 | 25.5 | 0 | 0 | 35.4
4 | O=C(/C=C/c1cc2ccccc2nc1Cl)c1cccnc1 | 30.2 | 46.6 |  |  |  |  |  |  | 53 | 30.7 | 69.5 | 12.1 | 0 | 26.4
5 | COc1cc2cc(/C=C/C(=O)c3ccccc3)c(Cl)nc2cc1OC | 42 | 0 |  |  |  |  |  |  | 0 | 0 | 29.9 | 35.7 | 0 | 42.2
6 | COc1ccc(C(=O)/C=C/c2cc3ccccc3nc2Cl)c(OC)c1 | 27.6 | 41.8 |  |  |  |  |  |  | 0 | 11.1 | 36.2 | 52.1 | 0 | 10.7
7 | O=C(/C=C/c1cc2ccccc2nc1Cl)c1ccc(C(F)(F)F)cc1 | 32.9 | 35.6 |  |  |  |  |  |  | 39.7 | 13 | 46.5 | 24.5 | 0 | 36.9
8 | CCn1c(=O)ccc2cc(COc3cc(F)cc(C4(OC)CCOCC4)c3)ccc21 |  |  | 0.09 |  |  |  |  | 0.06 |  |  |  |  |  | 
9 | COc1cc2cc(/C=C/C(=O)c3ccc(C)cc3)c(Cl)nc2cc1OC | 61 | 0 |  |  | 9.8 |  |  |  | 38.6 | 15.2 | 59.5 | 11.2 | 40.7 | 

More lines, main results first:

Row | inhibition [1] [%] | inhibition [2] [%] | IC50 [9] [µM] | IC50 (Homo sapiens [10]) [µM] | IC50 (Homo sapiens [11]) [µM] | IC50 (Homo sapiens [12]) [µM] | IC50 [13] [µM] | IC50 [14] [µM] | SMILES | Inhibition (Mus musculus [3]) [%] | Inhibition (Mus musculus [4]) [%] | Inhibition (Mus musculus [5]) [%] | Inhibition (Mus musculus [6]) [%] | Inhibition (Homo sapiens [7]) [%] | Inhibition (Homo sapiens [8]) [%]
10 |  | 36.3 | 3.9 | 3 | 6.2 |  |  |  | O=C(/C=C/c1cc2ccccc2nc1Cl)c1ccc(F)cc1 | 36.6 | 18.5 | 58.3 | 0 |  | 
11 | 42.3 | 30 |  |  |  |  |  |  | COc1ccc(C(=O)/C=C/c2cc3ccccc3nc2Cl)cc1 | 20.4 | 20.9 | 23.2 | 0 | 0 | 30.2
12 |  | 0 | 3.5 | 8.4 |  |  |  |  | Cc1coc(C)c1C(=O)/C=C/c1cc2ccccc2nc1Cl | 47.1 | 19.5 | 56.8 | 34.4 |  | 53.5
13 | 37.9 | 0 |  |  |  | 0.1 | 0.3 |  | COc1ccc(C(=O)/C=C/c2ccc(N(C)C)cc2)cc1OC | 20.6 | 41.1 | 75.8 | 64.2 | 0 | 0
14 |  | 0 | 6.1 | 2.2 | 6.7 |  |  |  | COc1cccc(/C=C/C(=O)c2ccc(Br)cc2)c1OC | 35.7 | 40 | 62 | 44 |  | 

From ChEMBL document CHEMBL1131525, “Synthesis and anti-inflammatory activity of chalcone derivatives” (Bioorg Med Chem Lett, 1998)
